In data set [1] the test system is B16 melanoma-induced cachexia. Conditions: cited from earlier work; for B16 melanoma-induced cachexia: mice.
The next data set deals with T1, human aldose reductase (Homo sapiens, UniProt P15121).
T1 construct: His-tag (cleaved yes); made in house; host or cells: E. coli BL21
Nature of the data set: Inhibition of recombinant human aldose reductase, DL-glyceraldehyde reduction, NADPH at 340 nm. Format: biochemical. The method, then: DL Glyceraldehyde, NADPH, and Bezafibrate (2-[4-[2-(4-chlorobenzamiso)ethyl]phenoxy]-2-methyl-propionic acid) were purchased from Sigma-Aldrich. All other chemicals used were of the highest purity available.
Human aldose reductase was recombinantly expressed in E. coli BL21, purified, and used for testing the efficacy of Bezafibrate in regulating aldehyde reduction reaction. […] Over night grown culture was inoculated (25 ml/l) into four 3 l flasks each containing 11 LB supplemented with ampicillin (50 μg/ml) at 37° C. with shaking (250 rpm) for 3 to 4 h until an attenuance (A600) of ˜0.7. Isopropyl β-D-thiogalactoside (IPTG, 1 mM) was added to the culture and was further incubated for 3 h to induce the expression of human aldose reductase gene. […] Cell pellets were resuspended in 80 ml of Talon extraction/wash buffer, (pH 7.9, Clonetech), and lysed by sonication with ten pulses (30 s each) and centrifuged at 12 000 g. […] The slurry was then transferred into a column allowing the matrix to pack and the supernatant to pass through at a flow rate of […]. The column was washed with 50 ml of Talon extraction/wash buffer, and the enzyme was eluted with 50 ml of Talon elution buffer. The eluted protein was dialyzed overnight using Spectra/Por 5-8 kDa MWCO at 4° C. in 50 mM sodium phosphate buffer (pH 7.0) containing 1 mM 2-mercaptoethanol. His-tag from the dialyzed protein was removed using thrombin cleavage kit (Novagen) by adding 1 μl of thrombin to 4 mg of protein and incubating overnight at room temperature. The purity of the protein at each stage of purification was assessed by SDS PAGE, and staining the gels with Coomassie Blue.
Activity with various concentrations of DL glyceraldehyde in the absence and, in the presence of various concentrations of Bezafibrate was determined by monitoring the change in NADPH concentration at room temperature 28±2° C. in a Beckman DU600 model spectrophotometer by measuring the absorbance at 340 nm, in 0.01 M sodium phosphate buffer (pH 6.2). Kinetic parameters were obtained from initial-rate activity measurements, with substrate concentrations of 0.05 mM to 10 mM. Each individual rate measurement was done in duplicate. At least three independent determinations were performed for each kinetic constant. Values were calculated using Sigmaplot Ver 8.0 (SPSS Inc.) using a non-linear Marquardt's regression algorithm that computes the coefficients (parameters) of the independent variable(s) that give the “best fit” between the equation and the data. Inhibition-constant (Ki) and, the IC50 values for bezofibrate was calculated from the secondary plot of slope values from the double-reciprocal plot versus inhibitor concentration and from the plot of rate of reaction versus inhibitor concentration respectively.
The initial rates in the presence of Bezafibrate were analyzed by using equation 1: v=Vmax/((1+Km/S)*(1+I/Ki)/(1+I*beta/Ki)) (1) where, v=rate of reaction, Vmax=maximum initial velocity for the uninhibited reaction, Km=Michaelis constant in the absence of inhibitor, Ki=inhibition constant and beta=the rate constant when enzyme substrate complex breaks down to Enzyme and Product.

The subject of data set [2] is COS-7 cells. Description: Cellular metabolism of adenine propenal in COS-7 cells (HPLC, ESI+/MS). Format: cell-based. Conditions: 10 μM adenine propenal; for reduction of the glutathione conjugate of adenine propenal in the presence of AR inhibitor: COS-7 cells. The method, then:
(§1) The cellular metabolism of base propenals was examined in isolated rabbit cardiac myocytes and COS-7 cells. The myocytes from rabbit ventricle were isolated as described in (46) and the COS-7 cells were obtained from ATCC. For metabolic studies, the cells were incubated with 10 μM of adenine propenal in Hepes-Ringer's buffer, pH 7.4. After 30 min of incubation, the medium was removed, and the adenine propenal and metabolites in the medium were separated by HPLC. […] To establish the structure of the glutathione conjugate peak I of the metabolites was injected into ESI^+/MS.
(§2) To probe the role of AR further, whether upregulation of AR would enhance the reductive metabolism of adenine propenal was examined. To enhance the expression of AR, the COS-7 cells were transfected with AR cDNA using lipofectamine.
To examine changes in metabolism, the cells transfected with AR cDNA and the empty vector were incubated with 10 μM adenine propenal as described before. After 30 min of incubation, the medium was collected and separated by HPLC.

The subject of data set [3] is isolated rabbit cardiac myocytes. Nature of the data set: Cellular metabolism of adenine propenal in isolated cardiac myocytes (HPLC, ESI+/MS). It is filed as cell-based. Particulars: 10 μM adenine propenal. On the procedure: as §1, §2
The target of another data set is rat aldose reductase (Rattus norvegicus, UniProt P07943). Particulars: cited from earlier work.
For data set [4], the system named is HeLa cervical carcinoma cells. Conditions: cited from earlier work.
In data set [5] the target is T2, rat lens aldose reductase (Rattus norvegicus, UniProt P07943).
T2 construct: host or cells: rat lens (as named)
Particulars: cited from earlier work.

The test system of data set [6] is COS-7 cells. Nature of the data set: Toxicity of adenine propenal to COS-7 cells, MTT assay. Format: cell-based. Particulars: 100 μM adenine propenal, pre-incubated with 100 μM sorbinil. Background: Tetrazolium dyes change colour on reduction, which living cells bring about.
A further data set relates to human monocytes. Conditions: human monocytes stimulated by LPS in vitro; cited from earlier work.
A further data set concerns interleukin-1 (IL-1). Conditions: mice; cited from earlier work.
Data set [7] deals with murine adenocarcinoma colon26-induced cachexia. Conditions: cited from earlier work.
Another data set has as its system hepatoma cells. Conditions: in the presence of 3-deoxyglucosone and glyceraldehydes; cited from earlier work.
Where [8] appears, read: reduction of glyceraldehyde, read-out: Ki value.
Where [9] appears, read: saturating substrate (10 mM DL-glyceraldehyde), read-out: IC50 value.
[10] abbreviates: Table I, recombinant human AR, reduction of DL-glyceraldehyde, read-out: K1.

Read-outs that look alike come from different tables or passages of the source.

`CCOP(=O)(Cc1ccc(C(=O)Nc2ccc(Br)cc2C#N)cc1)OCC` [NO-1886]: the “weight of epididymal fat and whole body lipid” value in data set [1] (mice after intraperitoneal inoculation of B16) was “ameliorated”. For the same compound, the B16 melanoma-induced cachexia result in data set [1] was “alleviated”.

For orientation: IC50 means the concentration at which inhibition is half-maximal. Consider `O=[N+]([O-])NC1=NCCN1Cc1ccc(Cl)nc1` [Imidcloprid, N-(6-chloropyridin-3-ylmethyl)-2-nitroiminoimidazolidine], for which the IC50 at human aldose reductase (IC50 value, saturating substrate (10 mM DL-glyceraldehyde)) was determined as 1.5 µM. In addition, at human aldose reductase (Ki value, reduction of glyceraldehyde), the Ki worked out at 12.6 µM.

Turning to `COc1ccc2c(C(=S)N(C)CC(=O)O)cccc2c1C(F)(F)F` [tolrestat], the “reduction of the glutathione conjugate of adenine propenal in the presence of AR inhibitor” value (in the data set on COS-7 cells [2]; in data set [3]) was “significantly prevented” throughout.

For the compound `CCOC(=O)C1=C(O)C(=O)N(Cc2ccccc2)C1` [EBPC, ethyl 1-benzyl-3-hydroxy-2(5H)-oxopyrrole-4-carboxylate], the “inhibition of rat aldose reductase” value on rat aldose reductase is reported as “inhibits”. Further, the “cell death or proliferation, EBPC alone” value in data set [4] (30 or 50 μM EBPC alone) is “no effect”. In addition, the “percentage of dead cells” value in data set [4] (24 h, doxorubicin or 30 μM cisplatin with 30 or 50 μM EBPC, vs untreated control) is “significant increase”. Further, the “extracellular signal-regulated kinase (ERK) activity” value in data set [4] (EBPC with chemotherapeutic drugs vs chemotherapeutic drugs) is “increased”. Also, the “cytotoxic effects of doxorubicin and cisplatin” value in data set [4] (HeLa cells, combination with EBPC) is on record as “enhances”.

Consider `OC/C=C/c1ccccc1` [ainnnamyl alcohol], for which the “inhibition against rat AR” value in data set [5] is on record as “weak inhibition”.

For the compound `N#CC(=C(/N)Sc1ccccc1N)/C(C#N)=C(\N)Sc1ccccc1N` [U0126], the “EBPC-mediated enhancement of cell death” value in data set [4] (inhibition of ERK activation by MEK inhibitor) is recorded as “reversed”.

Regarding `O=CC=Cc1ccccc1` [cinnamaldehyde], in data set [5], the “inhibition against rat AR” value is “high potency”.

With `N#CC(=Cc1ccc(O)cc1)C(=O)O` [α-cyano-4-hydroxycinnamic acid], on human aldose reductase, the IC50 stood at 0.08 ± 0.005 µM and the Ki turned out to be 0.085 µM. The “inhibition pattern with respect to reduction of glyceraldehyde, forward direction” value at human aldose reductase (recombinant hAR, Lineweaver-Burk plot) was “partial noncompetitive inhibition pattern”.

Take `O=C(O)Cc1nn(Cc2nc3cc(C(F)(F)F)ccc3s2)c(=O)c2ccccc12` [Zopolrestat]: the “inhibitory effect on AR activity (in words)” value (shortened to “inhibitory effect … (in words)”) at human aldose reductase is recorded as “inhibitory effects”.

Take `COc1cccc2c1C(=O)c1c(O)c3c(c(O)c1C2=O)C[C@@](O)(C(=O)CO)C[C@@H]3O[C@H]1C[C@H](N)[C@H](O)[C@H](C)O1` [Doxorubicin]: on human aldose reductase, the IC50 is 0.2 µM and the Ki was 0.24 ± 0.02 µM.

On to `CC(C)(Oc1ccc(Cl)cc1)C(=O)O` [2-4-Chlorophenoxy clofibric acid], for which the “inhibitory effect … (in words)” value on human aldose reductase is on record as “inhibitory effect”. Also, the Ki on human aldose reductase (setting [8]) was determined as 1.04 ± 0.047 µM. The IC50 at human aldose reductase (setting [9]) came out at 1.2 ± 0.1 µM.

Turning to `COc1cccc2c1C(=O)c1c(O)c3c(c(O)c1C2=O)C[C@@](O)(C(=O)CO)C[C@@H]3O[C@H]1C[C@H](N)[C@@H](O)[C@H](C)O1` [Epirubicin], at human aldose reductase, the half-maximal inhibitory concentration (IC50) was found to be 5.5 µM and the Ki worked out at 77.6 µM.

With `COc1cccc2c1C(=O)c1c(O)c3c(c(O)c1C2=O)C[C@@](O)(C(C)=O)C[C@@H]3O[C@H]1C[C@H](N)[C@H](O)[C@H](C)O1` [Daunorubicin], the “inhibitory effect … (in words)” value at human aldose reductase is listed as “inhibitory effects”. Further, the Ki on human aldose reductase (setting [10]) worked out at 21.4 ± 7.67 µM. Further, at human aldose reductase (setting [9]), the IC50 stood at 5 µM.

For `O=C(O)/C=C/c1ccccc1` [trans-cinnamic acid], the “inhibition against rat AR” value in data set [5] is on record as “weak inhibition”.

On to `Cc1ccc(C)c(OCCCC(C)(C)C(=O)O)c1` [Gemfibrozil], for which, at human aldose reductase, the “inhibitory effect … (in words)” value is reported as “inhibitory effect”. Further, the half-inhibitory concentration (IC50) stood at 6.5 ± 0.02 µM on human aldose reductase (Table I, recombinant human AR, reduction of DL-glyceraldehyde, read-out: IC50) and 3 ± 0.2 µM at human aldose reductase (setting [9]). For the same compound, the Ki is 3.5 ± 0.79 µM at human aldose reductase (setting [10]) and 2.74 ± 0.072 µM on human aldose reductase (setting [8]).

On to `CC(=O)[C@]1(O)Cc2c(O)c3c(c(O)c2[C@@H](O[C@H]2C[C@H](N)[C@H](O)[C@H](C)O2)C1)C(=O)c1ccccc1C3=O` [Idamycin], for which the “inhibitory effect … (in words)” value at human aldose reductase is listed as “inhibitory effects”. On human aldose reductase (setting [10]), the Ki turned out to be 20.5 ± 1.5 µM. In addition, the IC50 at human aldose reductase (setting [9]) stood at 5.6 µM.

Consider `O=C1NC(=O)[C@@]2(CCOc3ccc(F)cc32)N1` [Sorbinil], for which, in the data set with COS-7 cells [2] (AR-transfected COS-7 cells, 30 min, in the presence of sorbinil), the “adenine propenol peak (22 min) in AR cDNA-transfected cells” value was “completely abolished”. The “reduction of the glutathione conjugate of adenine propenal in the presence of AR inhibitor” value (in the data set on COS-7 cells [2]; in data set [3]) was “significantly prevented” in each case. Moreover, the “half life of cell viability after pre-incubation with AR inhibitor” value in the data set on COS-7 cells [6] worked out at 6.1 ± 0.5 h. On human aldose reductase, the “inhibitory effect … (in words)” value was “inhibitory effects”.

Regarding `O=C(O)Cc1nn(Cc2ccc(Br)cc2F)c(=O)c2ccccc12` [ponalrestat], in the data set with human monocytes, the “production of interleukin-1 (IL-1)” value is “inhibited”. In addition, the “LPS-induced increase of IL-1 in the blood” value in the data set with interleukin-1 (IL-1) is listed as “suppressed”. Besides, in [7] (colon26 bearing mice), the survival entry is “significantly prolonged”; the “weight of body mass, epididymal fat, gastrocnemius muscle and carcass” value is “attenuated the reduction”. In addition, the tumor growth result in data set [7] (mice bearing colon26 subcutaneously) is listed as “slightly stimulated”. For the same compound, the B16 melanoma-induced cachexia entry in data set [1] is given as “inhibited”.

`C=CCc1ccc(O)c(OC)c1` [eugenol]: in [5], the “inhibition against rat AR” value was “weak inhibition”.

In the case of `CC(/C=C1\SC(=S)N(CC(=O)O)C1=O)=C\c1ccccc1` [ONO-2235], in the data set on hepatoma cells, the “viability of hepatoma cells” value is reported as “decreased”.

Take `CC(C)(Oc1ccc(CCNC(=O)c2ccc(Cl)cc2)cc1)C(=O)O` [Bezafibrate, 2-[4-[2-(4-chlorobenzamiso)ethyl]phenoxy]-2-methyl-propionic acid]: at human aldose reductase (apparent noncompetitive inhibition constant, read-out: Ki value, unit inferred), the Ki stood at 2 µM. Besides, the half-inhibitory concentration (IC50) at human aldose reductase (setting [9]) was determined as 3.8 µM.

Values taken from US20050004225A1, “Oxidoreductase inhibitors and methods of screening and using thereof” (priority 2003, published 2005).
